Assay results from PubChem BioAssay (NCI).
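A five-concentration, 48-hour dose response in 96-well plates underlies each endpoint, interpolated linearly between surrounding concentrations. The concentration for 50% growth inhibition is given as GI50. The concentration for full growth arrest is given as TGI.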

Columns and labels:
Test in all cases: NCI-60 cell line screen, 48 h
MDA-MB-435 = tested on: MDA-MB-435
UACC-257 melanoma = tested on: UACC-257 melanoma
PC-3 prostate = tested on: PC-3 prostate
ACHN renal = tested on: ACHN renal
SN12C renal = tested on: SN12C renal
SK-MEL-5 melanoma = tested on: SK-MEL-5 melanoma
IGROV1 ovarian = tested on: IGROV1 ovarian
UACC-62 melanoma = tested on: UACC-62 melanoma
MCF7 breast = tested on: MCF7 breast
HT29 colon = tested on: HT29 colon
KM12 colon = tested on: KM12 colon
OVCAR-8 ovarian = tested on: OVCAR-8 ovarian
SK-MEL-28 melanoma = tested on: SK-MEL-28 melanoma
CCRF-CEM leukemia = tested on: CCRF-CEM leukemia
786-0 renal = tested on: 786-0 renal
SW-620 colon = tested on: SW-620 colon
OVCAR-5 ovarian = tested on: OVCAR-5 ovarian
CAKI-1 renal = tested on: CAKI-1 renal
SF-268 CNS = tested on: SF-268 CNS
OVCAR-4 ovarian = tested on: OVCAR-4 ovarian
EKVX NSCLC = tested on: EKVX NSCLC
K-562 leukemia = tested on: K-562 leukemia
A498 renal = tested on: A498 renal
HL-60(TB) leukemia = tested on: HL-60(TB) leukemia
OVCAR-3 ovarian = tested on: OVCAR-3 ovarian
NCI-H226 lung = tested on: NCI-H226 lung
UO-31 renal = tested on: UO-31 renal
SF-295 CNS = tested on: SF-295 CNS
NCI-H522 lung = tested on: NCI-H522 lung
SR leukemia = tested on: SR leukemia
MOLT-4 leukemia = tested on: MOLT-4 leukemia
BT-549 breast = tested on: BT-549 breast
LOX IMVI melanoma = tested on: LOX IMVI melanoma
RXF 393 renal = tested on: RXF 393 renal
HOP-62 NSCLC = tested on: HOP-62 NSCLC
SK-OV-3 ovarian = tested on: SK-OV-3 ovarian
HCT-15 colon = tested on: HCT-15 colon
MDA-MB-231 breast = tested on: MDA-MB-231 breast
M14 melanoma = tested on: M14 melanoma
NCI-H23 lung = tested on: NCI-H23 lung
HS 578T breast = tested on: HS 578T breast
HCC-2998 colon = tested on: HCC-2998 colon
NCI-H460 lung = tested on: NCI-H460 lung
A549 NSCLC = tested on: A549 NSCLC
MDA-N = tested on: MDA-N
HOP-92 NSCLC = tested on: HOP-92 NSCLC
SNB-19 CNS = tested on: SNB-19 CNS
SNB-75 CNS = tested on: SNB-75 CNS
TK-10 renal = tested on: TK-10 renal
T-47D breast = tested on: T-47D breast
SF-539 CNS = tested on: SF-539 CNS
COLO 205 colon = tested on: COLO 205 colon
DU-145 prostate = tested on: DU-145 prostate
NCI/ADR-RES ovarian = tested on: NCI/ADR-RES ovarian
SK-MEL-2 melanoma = tested on: SK-MEL-2 melanoma
HCT-116 colon = tested on: HCT-116 colon
MALME-3M melanoma = tested on: MALME-3M melanoma
U251 CNS = tested on: U251 CNS
RPMI-8226 leukemia = tested on: RPMI-8226 leukemia

SMILES: COc1ccc(-c2cc3c(nn2)-c2ccccc2C3=O)cc1
- GI50 (MDA-MB-435): > 100 µM
- TGI (MDA-MB-435): > 100 µM
- GI50 (UACC-257 melanoma): > 100 µM
- TGI (UACC-257 melanoma): > 100 µM
- GI50 (PC-3 prostate): > 100 µM
- TGI (PC-3 prostate): > 100 µM
- GI50 (ACHN renal): > 100 µM
- TGI (ACHN renal): > 100 µM
- GI50 (SN12C renal): > 100 µM
- TGI (SN12C renal): > 100 µM
- GI50 (SK-MEL-5 melanoma): > 100 µM
- TGI (SK-MEL-5 melanoma): > 100 µM
- GI50 (IGROV1 ovarian): > 100 µM
- TGI (IGROV1 ovarian): > 100 µM
- GI50 (UACC-62 melanoma): > 100 µM
- TGI (UACC-62 melanoma): > 100 µM
- GI50 (MCF7 breast): 36.1 µM
- TGI (MCF7 breast): > 100 µM
- GI50 (HT29 colon): > 100 µM
- TGI (HT29 colon): > 100 µM
- GI50 (KM12 colon): 47.7 µM
- TGI (KM12 colon): > 100 µM
- GI50 (OVCAR-8 ovarian): > 100 µM
- TGI (OVCAR-8 ovarian): > 100 µM
- GI50 (SK-MEL-28 melanoma): > 100 µM
- TGI (SK-MEL-28 melanoma): > 100 µM
- GI50 (CCRF-CEM leukemia): 9.52 µM
- TGI (CCRF-CEM leukemia): > 100 µM
- GI50 (786-0 renal): > 100 µM
- TGI (786-0 renal): > 100 µM
- GI50 (SW-620 colon): 72.7 µM
- TGI (SW-620 colon): > 100 µM
- GI50 (OVCAR-5 ovarian): > 100 µM
- TGI (OVCAR-5 ovarian): > 100 µM
- GI50 (CAKI-1 renal): > 100 µM
- TGI (CAKI-1 renal): > 100 µM
- GI50 (SF-268 CNS): > 100 µM
- TGI (SF-268 CNS): > 100 µM
- GI50 (OVCAR-4 ovarian): > 100 µM
- TGI (OVCAR-4 ovarian): > 100 µM
- TGI (EKVX NSCLC): > 10 µM
- GI50 (K-562 leukemia): > 100 µM
- TGI (K-562 leukemia): > 100 µM
- GI50 (A498 renal): > 100 µM
- TGI (A498 renal): > 100 µM
- GI50 (HL-60(TB) leukemia): > 100 µM
- TGI (HL-60(TB) leukemia): > 100 µM
- GI50 (OVCAR-3 ovarian): > 100 µM
- TGI (OVCAR-3 ovarian): > 100 µM
- GI50 (NCI-H226 lung): > 100 µM
- TGI (NCI-H226 lung): > 100 µM
- GI50 (UO-31 renal): > 100 µM
- TGI (UO-31 renal): > 100 µM
- GI50 (SF-295 CNS): > 100 µM
- TGI (SF-295 CNS): > 100 µM
- GI50 (NCI-H522 lung): > 100 µM
- TGI (NCI-H522 lung): > 100 µM
- GI50 (SR leukemia): 14.7 µM
- TGI (SR leukemia): > 100 µM
- GI50 (MOLT-4 leukemia): 32.8 µM
- TGI (MOLT-4 leukemia): > 100 µM
- GI50 (BT-549 breast): > 100 µM
- TGI (BT-549 breast): > 100 µM
- GI50 (LOX IMVI melanoma): > 100 µM
- TGI (LOX IMVI melanoma): > 100 µM
- GI50 (RXF 393 renal): > 100 µM
- TGI (RXF 393 renal): > 100 µM
- GI50 (HOP-62 NSCLC): > 100 µM
- TGI (HOP-62 NSCLC): > 100 µM
- GI50 (SK-OV-3 ovarian): > 100 µM
- TGI (SK-OV-3 ovarian): > 100 µM
- GI50 (HCT-15 colon): > 100 µM
- TGI (HCT-15 colon): > 100 µM
- GI50 (MDA-MB-231 breast): 70 µM
- TGI (MDA-MB-231 breast): > 100 µM
- GI50 (M14 melanoma): > 100 µM
- TGI (M14 melanoma): > 100 µM
- GI50 (NCI-H23 lung): > 100 µM
- TGI (NCI-H23 lung): > 100 µM
- GI50 (HS 578T breast): > 100 µM
- TGI (HS 578T breast): > 100 µM
- GI50 (HCC-2998 colon): > 100 µM
- TGI (HCC-2998 colon): > 100 µM
- GI50 (NCI-H460 lung): > 100 µM
- TGI (NCI-H460 lung): > 100 µM
- GI50 (A549 NSCLC): > 100 µM
- TGI (A549 NSCLC): > 100 µM
- TGI (MDA-N): > 10 µM
- GI50 (HOP-92 NSCLC): > 100 µM
- TGI (HOP-92 NSCLC): > 100 µM
- GI50 (SNB-19 CNS): > 100 µM
- TGI (SNB-19 CNS): > 100 µM
- GI50 (SNB-75 CNS): > 100 µM
- TGI (SNB-75 CNS): > 100 µM
- GI50 (TK-10 renal): > 100 µM
- TGI (TK-10 renal): > 100 µM
- GI50 (T-47D breast): > 100 µM
- TGI (T-47D breast): > 100 µM
- GI50 (SF-539 CNS): > 100 µM
- TGI (SF-539 CNS): > 100 µM
- GI50 (COLO 205 colon): > 100 µM
- TGI (COLO 205 colon): > 100 µM
- GI50 (DU-145 prostate): > 100 µM
- TGI (DU-145 prostate): > 100 µM
- GI50 (NCI/ADR-RES ovarian): > 100 µM
- TGI (NCI/ADR-RES ovarian): > 100 µM
- TGI (SK-MEL-2 melanoma): > 10 µM
- GI50 (HCT-116 colon): 70.2 µM
- TGI (HCT-116 colon): > 100 µM
- GI50 (MALME-3M melanoma): > 100 µM
- TGI (MALME-3M melanoma): > 100 µM
- GI50 (U251 CNS): > 100 µM
- TGI (U251 CNS): > 100 µM
- GI50 (RPMI-8226 leukemia): > 100 µM
- TGI (RPMI-8226 leukemia): > 100 µM
